{"source": "patent US20250000834A1", "about": "“COMPOSITIONS AND METHODS FOR TARGETING GPCR FOR THE PREVENTION AND TREATMENT OF PAIN” (Duke University, priority 2021, published 2025)", "key": {"[1]": {"target": "T1, hGPR37L1 (Homo sapiens, UniProt O60883)", "T1 sequence (O60883 26-481)": "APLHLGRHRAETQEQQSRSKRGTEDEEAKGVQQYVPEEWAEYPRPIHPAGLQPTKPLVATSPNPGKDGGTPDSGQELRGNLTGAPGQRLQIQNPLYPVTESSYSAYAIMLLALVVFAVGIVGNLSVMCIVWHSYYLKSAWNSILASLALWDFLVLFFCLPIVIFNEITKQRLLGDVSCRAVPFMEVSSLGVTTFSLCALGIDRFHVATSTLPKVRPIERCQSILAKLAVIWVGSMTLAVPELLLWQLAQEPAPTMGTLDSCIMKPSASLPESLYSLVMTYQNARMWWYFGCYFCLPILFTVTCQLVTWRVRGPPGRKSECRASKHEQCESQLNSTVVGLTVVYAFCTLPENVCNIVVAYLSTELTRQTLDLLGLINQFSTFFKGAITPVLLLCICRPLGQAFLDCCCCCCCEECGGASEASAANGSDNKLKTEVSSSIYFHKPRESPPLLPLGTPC", "test": "Lipid overlay assay with lysates of hGPR37L1-transfected HEK293 cells", "assay_type": "binding", "design": "expressed in transfected cells; host or cells: HEK293 Flp-In cells", "experimental": "Lipids overlay assay: Lipids membrane coating and protein overlay assay were performed as previously described (S. Dowler, et al., Protein lipid overlay assay. Sci STKE 2002, p 16 (2002)). […] Compound-coated membranes were dried and blocked with 1% BSA. The coated membranes were incubated with lysates obtained from hGPR37L1-transfected HEK293 cells or mouse DRG lysate from WT or Gpr37l1 KO mice for 2 hours, followed by detection using an anti-GRP37L1 antibody (Bioss (Woburn, MA), Rabbit, 1:1000, #bs-15390R) or anti-flag antibody (Cell Signaling Technology (Danvers, MA), Rabbit, 1:1000, #14793). Blots were further incubated with an HRP-conjugated secondary anti-rabbit antibody (Jackson ImmunoResearch Laboratories (West Grove, PA), raised in donkey, 1:5000), developed in ECL solution (Pierce Biotechnology, Waltham, MA), and the signal was visualized from ChemiDoc XRS (Bio-Rad, Hercules, CA). The signal Intensity was quantified by Image J software (NIH).\nA lipid overlay assay was conducted to reveal any possible binding of these lipid mediators to GPR37L1. hGPR37L1 was FLAG-tagged and expressed in HEK293 cells after hGPR37L1 cDNA transfection; the expressed protein detectable by anti-FLAG antibody (schematic not shown; see U.S. Prov. No. 63/270,198, FIG. 3A)."}, "[2]": {"system": "PTX-induced mechanical allodynia in mice", "test": "Paclitaxel (PTX)-induced mechanical allodynia, von Frey paw withdrawal threshold", "assay_type": "in vivo, mouse", "conditions": "intrathecal 100 ng", "experimental": "Pain models and drug injection: Animal model of chemotherapy-induced peripheral neuropathy (CIPN) was induced by paclitaxel (Sigma-Aldrich (St. Louis, MO), T7191, diluted with sterile saline). A single injection of paclitaxel ([…]) was given by intraperitoneal injection. A single injection of paclitaxel may induce mechanical allodynia for 4-6 weeks (X. Luo et al., Macrophage Toll-like Receptor 9 Contributes to Chemotherapy-Induced Neuropathic Pain in Male Mice. J Neurosci 39, 6848-6864 (2019)). Animal model of […] neuropathy was induced by streptozotocin (STZ, Sigma-Aldrich (St. Louis, MO), S0130, diluted with sterile saline). A single injection of STZ (75 mg/kg) was given as previously described (N. C. Brigham et al., Controlled release of etoricoxib from poly(ester urea) films for post-operative pain management. J Control Release 329, 316-327 (2021)). For intrathecal (i.t.) injection of MaR1, a spinal cord puncture was made by a Hamilton micro-syringe (Hamilton, Reno, NV) with a 30-gauge needle between the L5 and L6 levels to deliver reagents (5 μl) to the cerebral spinal fluid (J. L. Hylden, G. L. Wilcox, Intrathecal morphine in mice: a new technique. Eur. J Pharmacol. 67, 313-316 (1980)).\nNociceptive behavior tests: Gpr37l1^+/+, Gpr37l1^+/−, or Gpr37l1^−/− mice were habituated to the testing environment for at least two days before the baseline testing. All the animal behaviors were tested blindly. Thermal and mechanical sensitivity was tested before and after the injection of paclitaxel (PTX, 6 mg/kg, IP) and streptozotocin (STZ, 75 mg/kg, IP). MaR1 was intrathecally injected 3 days after the STZ and PTX injection. […] The 50% paw withdrawal threshold was measured by Dixon's up-down method (W. J. Dixon, Efficient analysis of experimental observations. Annu Rev Pharmacol Toxicol 20, 441-462 (1980)). Thermal sensitivity was measured using a Hargreaves radiant heat apparatus (IITC Life Science, Woodland Hills, CA) (K. Hargreaves, et al., A new and sensitive method for measuring thermal nociception in cutaneous hyperalgesia. Pain 32, 77-88 (1988)). […]"}}}
{"molecule": "CC/C=C\\C/C=C\\C[C@H](O)\\C=C/C=C/C=C/[C@H](O)C/C=C\\CCC(=O)O", "note": "[MaR1, Maresin 1]", "values": [{"measurement": "binding signal in lipid overlay assay", "setting": "[1]; cell lysate from control mock transfection", "value": "no positive signal"}, {"measurement": "binding signal in lipid overlay assay", "setting": "[1]; lysate of hGPR37L1 (FLAG) transfected HEK293 cells, anti-FLAG detection", "value": "specific binding signal"}, {"measurement": "effect on PTX-induced mechanical allodynia", "setting": "[2]; Gpr37l1+/+ WT mice, 3 days after PTX", "value": "reversed PTX-induced mechanical allodynia in all the mice"}, {"measurement": "effect on PTX-induced mechanical allodynia", "setting": "[2]; Gpr37l1+/− mice", "value": "significantly reversed the mechanical allodynia in a majority"}, {"measurement": "effect on PTX-induced mechanical allodynia", "setting": "[2]; Gpr37l1−/− mice", "value": "no significant effects"}]}
